# Experimental data as given in patent US8772290B2, “Alpha-arylmethoxyacrylate derivative, preparation method thereof, and pharmaceutical composition containing same” (Oscotech Inc., priority 2010, dated 2014).
# System: HIF
# Assay: Assay for inhibitory activity against HIF activity (HIF1 luciferase reporter cell line)
# Assay type: cell-based, human
# Conditions: HEK293 HIF1 reporter cell line, 1% oxygen, 6 hours, luciferase activity 50% inhibited
# Text: In order to assay the compounds of the present invention for inhibitory activity against HIF activity, the HIF1 reporter plasmid (Panomics) that is designed to control the expression of luciferase by HIF was employed. The HIF1 reporter plasmid and the pTK-Hyg plasmid (Clontech), which carries a hygromycin resistant gene, were co-transfected into the HEK293 cell line (the Korean Cell Line Bank, KCLB No. 21573), derived from the human kidney, with the aid of Effectene transfection reagent (Qiagen). Then, the cells were cultured for 3 weeks on a medium containing 200 μg/mL hygromycin to select transformants resistant to hygromycin. The cell colonies derived from single cells were transferred to 24-well plates to secure a reporter cell line. The cells were seeded at a density of 4×10^4 cells/well into 96-well plates containing DMEM and incubated for 24 hours before treatment with the compounds of the present invention at a concentration of 25 μM, 5 μM, 1 μM, 200 nM, 40 nM, 8 nM, 1.6 nM, 320 pM, 64 pM, 12.8 pM, 2.56 pM, 512 fM, 102 fM, 20.4 fM, or an amount between any two concentrations above as shown in FIGS. 1A to 1C. Under 1% oxygen condition, the cells were incubated for 6 hours and then, the medium was removed. The cells were lyzed by incubation for 5 min with 100 μL of the mixture of Bright-Glo™ luciferase assay buffer and Bright-Glo™ luciferase assay substrate (Promega). The whole cell lysate was transferred to 96-well, white plates (PerkinElmer) and measured for luminescence using Victor™ 3 (PerkinElmer). From the luminescence measurements, IC50 (a concentration of the compound at which luciferase activity was 50% inhibited) was calculated using the GraphPad Prism™ 4 program. The results are summarized in Table 2 and illustrated in FIGS. 1A to 1C.
IC50 (Homo sapiens),IC50,Compound
900 nM,–,"CO/C=C(/C(=O)OC)c1ccccc1COc1c(F)cc(/C=N/OCCc2ccccc2)cc1OC [Compound 66, (E)-methyl 2-(2-((2-fluoro-6-methoxy-4-((E)-(phenethoxyimino)methyl)-phenoxy)methyl)phenyl)-3-methoxyacrylate]"
20 nM,–,"CCCO/N=C/c1ccc(OCc2ccccc2/C(=C\OC)C(=O)OC)c(C)c1 [Compound 32, (E)-methyl 2-(2-((2-methyl-4-((E)-(propoxyimino)methyl)phenoxy)-methyl)phenyl)-3-methoxyacrylate]"
640 nM,–,"CO/C=C(/C(=O)OC)c1ccccc1COc1cccc(OCCNCCO)c1 [Compound 11, (E)-methyl 2-(2-((3-(2-(2-hydroxyethylamino)ethoxy)phenoxy)methyl)-phenyl)-3-methoxyacrylate]"
710 nM,–,"CO/C=C(/C(=O)OC)c1ccccc1COc1cc(O)cc(OCc2ccccn2)c1 [Compound 28, (E)-methyl 2-(2-((3-hydroxy-5-(pyridin-2-ylmethoxy)phenoxy)methyl)-phenyl)-3-methoxyacrylate]"
11000 nM,–,"CO/C=C(/C(=O)OC)c1ccccc1COc1cc(O)cc(OCc2ccncc2)c1 [Compound 29, (E)-methyl 2-(2-((3-hydroxy-5-(pyridin-4-ylmethoxy)phenoxy)methyl)-phenyl)-3-methoxyacrylate]"
3940 nM,–,"CO/C=C(/C(=O)OC)c1ccccc1COc1cc(/C(C)=N/OCc2ccc(C)cc2)ccc1OC [Compound 57, (E)-methyl 2-(2-((2-methoxy-5-((E)-1-(4-methylbenzyloxyimino)ethyl)-phenoxy)methyl)phenyl)-3-methoxyacrylate]"
20 nM,–,"CO/C=C(/C(=O)OC)c1ccccc1COc1cc(C)c(/C=N/OCCCOc2ccccc2)cc1C [Compound 71, (E)-methyl 2-(2-((2,5-dimethyl-4-((E)-(3-phenoxypropyloxyimino)-methyl)phenoxy)methyl)phenyl)-3-methoxyacrylate]"
30 nM,–,"CO/C=C(/C(=O)OC)c1ccccc1COc1cc(C)c(/C=N/OCc2ccccn2)cc1C [Compound 73, (E)-methyl 2-(2-((4-((E)-(pyridin-2-ylmethoxyimino)methyl)-2,5-dimethylphenoxy)methyl)phenyl)-3-methoxyacrylate]"
4140 nM,–,"CC/C(=N\N1CCOCC1)c1cc(C)c(OCc2ccccc2/C(=C\OC)C(=O)OC)cc1C [Compound 30, (E)-methyl 2-(2-((2,5-dimethyl-4-((E)-1-(morpholinoimino)propyl)-phenoxy)methyl)phenyl)-3-methoxyacrylate]"
1670 nM,–,"CO/C=C(/C(=O)OC)c1ccccc1COc1cc(/C(C)=N/OCc2ccccc2)ccc1OC [Compound 38, (E)-methyl 2-(2-((5-((E)-1-(benzyloxyimino)ethyl)-2-methoxyphenoxy)-methyl)phenyl)-3-methoxyacrylate]"
2180 nM,–,"CO/C=C(/C(=O)OC)c1ccccc1COc1cc(/C(C)=N/OCCc2ccccc2)ccc1OC [Compound 44, (E)-methyl 2-(2-((2-methoxy-5-((E)-1-(phenylethoxyimino)ethyl)-phenoxy)methyl)phenyl)-3-methoxyacrylate]"
6640 nM,–,"CO/C=C(/C(=O)OC)c1ccccc1COc1cc(C)c(/C=N/OCCN2CCCC2)cc1C [Compound 53, (E)-methyl 2-(2-((2,5-dimethyl-4-((E)-(2-(pyrrolidin-1-yl)ethoxyimino)-methyl)phenoxy)methyl)phenyl)-3-methoxyacrylate]"
70 nM,–,"CO/C=C(/C(=O)OC)c1ccccc1COc1cc(C)c(/C=N/OCc2ccccc2)cc1C [Compound 50, (E)-methyl 2-(2-((4-((E)-(benzyloxyimino)methyl)-2,5-dimethylphenoxy)-methyl)phenyl)-3-methoxyacrylate]"
5540 nM,–,"CO/C=C(/C(=O)OC)c1ccccc1COc1c(F)cc(/C=N/OCc2ccccc2)cc1OC [Compound 61, (E)-methyl 2-(2-((4-((E)-(benzyloxyimino)methyl)-2-fluoro-6-methoxyphenoxy)methyl)phenyl)-3-methoxyacrylate]"
340 nM,–,"CO/C=C(/C(=O)OC)c1ccccc1COc1cccc(OCc2ccncc2)c1 [Compound 27, (E)-methyl 2-(2-((3-(pyridin-4-ylmethoxy)phenoxy)methyl)phenyl)-3-methoxyacrylate]"
1 nM,–,"CCCO/N=C(\C)c1cc(C)c(OCc2ccccc2/C(=C\OC)C(=O)OC)cc1C [Compound 2, (E)-methyl 2-(2-((2,5-dimethyl-4-((E)-1-(propoxyimino)ethyl)phenoxy)-methyl)phenyl)-3-methoxyacrylate]"

IC50 (Homo sapiens),IC50,Compound
20 nM,–,"CO/C=C(/C(=O)OC)c1ccccc1COc1cc(C)c(/C(C)=N/OC)cc1C [Compound 77, (E)-methyl 2-(2-((2,5-dimethyl-4-((E)-1-(methoxyimino)ethyl)phenoxy)-methyl)phenyl)-3-methoxyacrylate]"
1260 nM,–,"CO/C=C(/C(=O)OC)c1ccccc1COc1cc(/C=N/OCc2ccc(C)cc2)ccc1OC [Compound 58, (E)-methyl 2-(2-((2-methoxy-5-((E)-1-(4-methylbenzyloxyimino)methyl)-phenoxy)methyl)phenyl)-3-methoxyacrylate]"
6410 nM,–,"CO/C=C(/C(=O)OC)c1ccccc1COc1ccc(/C(C)=N/OCCN2CCCCC2)cc1 [Compound 9, (E)-methyl 2-(2-((4-((E)-1-(2-(piperidin-1-yl)ethoxyimino)ethyl)phenoxy)-methyl)phenyl)-3-methoxyacrylate]"
–,6060 nM,(E)-methyl 2-(2-((3-hydroxy-5-(2-phenoxyethoxy)phenoxy)methyl)-phenyl)-3-methoxyacrylate [Compound 20]
1500 nM,–,"CO/C=C(/C(=O)OC)c1ccccc1COc1cccc(OCCN2CCOCC2)c1 [Compound 76, (E)-methyl 2-(2-((3-(2-morpholinoethoxy)phenoxy)methyl)phenyl)-3-methoxyacrylate]"
6630 nM,–,"CO/C=C(/C(=O)OC)c1ccccc1COc1cc(C)c(/C=N/OCCN2CCCCC2)cc1C [Compound 54, (E)-methyl 2-(2-((2,5-dimethyl-4-((E)-(2-(piperidin-1-yl)ethoxyimino)-methyl)phenoxy)methyl)phenyl)-3-methoxyacrylate]"
5070 nM,–,"CCCO/N=C(\C)c1ccc(OC)c(OCc2ccccc2/C(=C\OC)C(=O)OC)c1 [Compound 42, (E)-methyl 2-(2-((2-methoxy-5-((E)-1-(propoxyimino)ethyl)phenoxy)-methyl)phenyl)-3-methoxyacrylate]"
1990 nM,–,"CO/C=C(/C(=O)OC)c1ccccc1COc1cccc(O)c1 [Compound 5, (E)-methyl 2-(2-((5-hydroxyphenoxy)methyl)phenyl)-3-methoxyacrylate]"
180 nM,–,"CO/C=C(/C(=O)OC)c1ccccc1COc1cc(C)c(/C=N/OCc2cccc(OC)c2)cc1C [Compound 72, (E)-methyl 2-(2-((4-((E)-(3-methoxybenzyloxyimino)methyl)-2,5-dimethylphenoxy)methyl)phenyl)-3-methoxyacrylate]"
400 nM,–,"CO/C=C(/C(=O)OC)c1ccccc1COc1ccc(/C(C)=N/OCCc2ccccc2)cc1 [Compound 18, (E)-methyl 2-(2-((4-((E)-1-(phenethoxyimino)ethyl)phenoxy)methyl)-phenyl)-3-methoxyacrylate]"
7070 nM,–,"CO/C=C(/C(=O)OC)c1ccccc1COc1cccc(/C=N/OCCN2CCCCC2)c1 [Compound 10, (E)-methyl 3-methoxy-2-(2-((3-((E)-(2-(piperidin-1-yl)ethoxyimino)methyl)phenoxy)methyl)phenyl)acrylate]"
20 nM,–,"CO/C=C(/C(=O)OC)c1ccccc1COc1cc(C)c(/C=N/OCCOc2ccccc2)cc1C [Compound 51, (E)-methyl 2-(2-((2,5-dimethyl-4-((E)-(2-phenoxyethoxyimino)methyl)-phenoxy)methyl)phenyl)-3-methoxyacrylate]"
1 nM,–,"CCCO/N=C(\CC)c1cc(C)c(OCc2ccccc2/C(=C\OC)C(=O)OC)cc1C [Compound 1, (E)-methyl 2-(2-((2,5-dimethyl-4-((E)-1-(propoxyimino)propyl)phenoxy)-methyl)phenyl)-3-methoxyacrylate]"
6120 nM,–,"CO/C=C(/C(=O)OC)c1ccccc1COc1cc(C)cc(OCc2ccccc2)c1C [Compound 41, (E)-methyl 2-(2-((3-(benzyloxy)-2,5-dimethylphenoxy)methyl)phenyl)-3-methoxyacrylate]"
1920 nM,–,"CCCO/N=C(\C)c1ccc(OCc2ccccc2/C(=C\OC)C(=O)OC)c(OC)c1 [Compound 35, (E)-methyl 2-(2-((4-((E)-1-(propoxyimino)ethyl)-2-methoxyphenoxy)-methyl)phenyl)-3-methoxyacrylate]"
20 nM,–,"CCO/N=C(\C)c1cc(C)c(OCc2ccccc2/C(=C\OC)C(=O)OC)cc1C [Compound 78, (E)-methyl 2-(2-((2,5-dimethyl-4-((E)-1-(ethoxyimino)ethyl)phenoxy)-methyl)phenyl)-3-methoxyacrylate]"
